Results published in paper PMC5843628, “Phosphorylation of conserved phosphoinositide binding pocket regulates sorting nexin membrane targeting” (Nature Communications, 2018).

Target: full length human SNX3 (sorting nexin 3) (Homo sapiens, UniProt O60493)
Assay: NMR chemical shift perturbation titration, […]-labelled protein
Assay type: binding

Chain of full length human SNX3 (sorting nexin 3) (O60493 whole entry): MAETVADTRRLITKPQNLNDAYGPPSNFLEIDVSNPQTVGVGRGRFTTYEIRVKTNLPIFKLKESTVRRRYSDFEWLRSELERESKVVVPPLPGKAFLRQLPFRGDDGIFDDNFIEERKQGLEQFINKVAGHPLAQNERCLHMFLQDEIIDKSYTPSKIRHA

Kd | SMILES
170 ± 34.1 µM | O=P(O)(O)O[C@@H]1[C@H](O)[C@H](OP(=O)(O)O)[C@@H](O)[C@H](O)[C@H]1O [Ins(1,3)P2]
159 ± 36.1 µM | CCCC(=O)OC[C@H](COP(=O)(O)O[C@@H]1[C@H](O)[C@H](OP(=O)(O)O)[C@@H](O)[C@H](O)[C@H]1O)OC(=O)CCC [c4-PI3P]
